The text below walks through data of PMC6829864, “Determination of Ligand Profiles for Pseudomonas aeruginosa Solute Binding Proteins” (International Journal of Molecular Sciences, 2019).

Where a SMILES comes first, the peptide text is derived from it.

One assay addresses T1, PA4497 (dppA2) (Pseudomonas aeruginosa, UniProt Q9HVS4).
T1 sequence (Q9HVS4 25-532): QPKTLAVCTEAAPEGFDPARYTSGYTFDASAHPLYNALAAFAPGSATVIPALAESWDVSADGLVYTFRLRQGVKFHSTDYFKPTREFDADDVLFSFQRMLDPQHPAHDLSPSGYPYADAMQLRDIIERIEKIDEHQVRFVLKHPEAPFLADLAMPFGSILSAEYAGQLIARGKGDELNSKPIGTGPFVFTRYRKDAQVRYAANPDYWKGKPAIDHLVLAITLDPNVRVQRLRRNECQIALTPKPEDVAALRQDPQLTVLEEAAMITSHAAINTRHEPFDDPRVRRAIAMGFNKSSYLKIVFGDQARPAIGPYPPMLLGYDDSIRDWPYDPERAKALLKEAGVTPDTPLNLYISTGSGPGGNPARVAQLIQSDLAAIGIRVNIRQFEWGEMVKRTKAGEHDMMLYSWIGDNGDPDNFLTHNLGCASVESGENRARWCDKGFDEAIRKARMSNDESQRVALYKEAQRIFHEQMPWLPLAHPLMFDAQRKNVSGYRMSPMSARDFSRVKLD
In kind it is binding. The note with it: arrays PM3B, PM6, PM7, PM8.

For another assay, the target named is PA4500 (dppA3) (Pseudomonas aeruginosa, UniProt Q9HVS1). Nature of the assay: Isothermal titration calorimetry, PA4500. In kind it is binding, Pseudomonas aeruginosa PAO1. The note with it: 25 °C.
Chain of PA4500 (dppA3) (Q9HVS1 25-533): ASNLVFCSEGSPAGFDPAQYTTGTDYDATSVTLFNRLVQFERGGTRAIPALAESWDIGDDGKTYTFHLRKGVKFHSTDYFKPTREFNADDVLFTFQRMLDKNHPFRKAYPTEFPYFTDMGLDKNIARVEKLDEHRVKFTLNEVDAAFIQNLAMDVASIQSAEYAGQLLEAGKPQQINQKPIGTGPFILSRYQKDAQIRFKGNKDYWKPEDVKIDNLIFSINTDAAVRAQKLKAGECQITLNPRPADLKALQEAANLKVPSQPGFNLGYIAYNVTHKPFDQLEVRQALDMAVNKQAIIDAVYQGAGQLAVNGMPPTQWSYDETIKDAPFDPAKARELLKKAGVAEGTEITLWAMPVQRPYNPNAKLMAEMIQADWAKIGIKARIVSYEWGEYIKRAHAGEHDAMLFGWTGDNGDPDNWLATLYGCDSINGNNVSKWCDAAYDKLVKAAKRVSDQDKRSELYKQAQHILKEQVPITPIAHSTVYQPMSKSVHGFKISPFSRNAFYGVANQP
In assay [1] the test system is Pseudomonas aeruginosa PAO1. In kind it is cell-based. The note with it: capillary assay; chemoeffector 1 mM, except molybdate 0.1 mM; 30 min.
Assay [2] has as its target PA4497 (DppA2) solute binding protein of Pseudomonas aeruginosa PAO1 (Pseudomonas aeruginosa PAO1) (UniProt Q9HVS4). Nature of the assay: differential scanning fluorimetry thermal shift assay.

As to `C[C@H](N)C(=O)N[C@@H](C)C(=O)N[C@@H](C)C(=O)O` [Ala-Ala-Ala], at PA4497 (dppA2), the “Tm DSF (Tm increase)” value is 9.1 °C. Moreover, the “No Binding Observed by ITC” value on PA4500 (dppA3) was “absence of binding”. In addition, in assay [1], the Chemotaxis result is “No (Positive chemotaxis was considered when the number of bacterial cells per capillary was superior to 5000.)”.
For the compound `C[C@H](N)C(=O)NCC(=O)O` [Ala-Gly] (H-Ala-Gly-OH), in assay [1], the Chemotaxis result is listed as “No (Positive chemotaxis was considered when the number of bacterial cells per capillary was superior to 5000.)”.
For the compound `N[C@@H](CCC(=O)O)C(=O)N[C@@H](CCC(=O)O)C(=O)O` [Glu-Glu] (H-Glu-Glu-OH), the “No Binding Observed by ITC” value at PA4500 (dppA3) is “absence of binding”.
Take `C[C@H](NC(=O)CNC(=O)CN)C(=O)O` [Gly-Gly-Ala]: at PA4497 (dppA2), the “Tm DSF (Tm increase)” value is 7.6 °C. In addition, in assay [1], the Chemotaxis result was “No (Positive chemotaxis was considered when the number of bacterial cells per capillary was superior to 5000.)”.
`NCC(=O)NCC(=O)NCC(=O)O` [Gly-Gly-Gly] (H-Gly-Gly-Gly-OH): the “Tm DSF (Tm increase)” value on PA4497 (dppA2) stood at 4.4 °C.
Same read-out and setting: the same measure for `CC[C@H](C)[C@H](NC(=O)CNC(=O)CN)C(=O)O` [Gly-Gly-Ile] (H-Gly-Gly-Ile-OH): 5.1 °C; for `NCC(=O)NCC(=O)N[C@@H](Cc1ccccc1)C(=O)O` [Gly-Gly-Phe] (H-Gly-Gly-Phe-OH): 3.7 °C.
For the compound `NCC(=O)NC(Cc1ccccc1)C(=O)NC(Cc1ccccc1)C(=O)O` (stereo not drawn) [Gly-Phe-Phe] (H-Gly-Phe-Phe-OH; configuration not given here), the “Tm DSF (Tm increase)” value on PA4497 (dppA2) was found to be 6.6 °C.
For the compound `NCC(=O)NC(CO)C(=O)O` (stereo not shown) [Gly-Ser], the Chemotaxis entry in assay [1] was “Yes (Positive chemotaxis was considered when the number of bacterial cells per capillary was superior to 5000.)”.
For `CC(C)C[C@H](N)C(=O)NCC(=O)NCC(=O)O` [Leu-Gly-Gly] (H-Leu-Gly-Gly-OH), on PA4497 (dppA2), the “Tm DSF (Tm increase)” value was 3.2 °C. The Chemotaxis entry in assay [1] was “Yes (Positive chemotaxis was considered when the number of bacterial cells per capillary was superior to 5000.)”.
Take `CC(C)CC(N)C(=O)NC(CC(C)C)C(=O)NC(CC(C)C)C(=O)O` (stereo not drawn) [Leu-Leu-Leu] (H-Leu-Leu-Leu-OH; configuration not given here): the “Tm DSF (Tm increase)” value on PA4497 (dppA2) worked out at 5.0 °C.
In the case of `N[C@@H](Cc1ccccc1)C(=O)NCC(=O)NCC(=O)O` [Phe-Gly-Gly] (H-Phe-Gly-Gly-OH), the “Tm DSF (Tm increase)” value at PA4497 (dppA2) turned out to be 8.3 °C.
Consider `CC(C)[C@H](N)C(=O)N[C@@H](Cc1ccc(O)cc1)C(=O)N[C@H](C(=O)O)C(C)C` [Val-Tyr-Val] (H-Val-Tyr-Val-OH), for which the “Tm DSF (Tm increase)” value on PA4497 (dppA2) was found to be 5.0 °C. In assay [1], the Chemotaxis entry is “Yes (Positive chemotaxis was considered when the number of bacterial cells per capillary was superior to 5000.)”.
For the compound Ala-Ala-Ala (peptide), in assay [2], the Tm increase (DSF) was determined as 9.1 °C.
On to Gly-Gly-Ala (peptide), for which the Tm increase (DSF) in assay [2] came out at 7.6 °C.
Same read-out and setting: the same measure for Gly-Gly-Gly (peptide): 4.4 °C; for Gly-Gly-Ile (peptide): 5.1 °C.
As to Gly-Gly-Phe (peptide), the Tm increase (DSF) in assay [2] stood at 3.7 °C.
Regarding Gly-Phe-Phe (peptide), the Tm increase (DSF) in assay [2] amounted to 6.6 °C.
On to Leu-Gly-Gly (peptide), for which, in assay [2], the Tm increase (DSF) is 3.2 °C.
Consider Leu-Leu-Leu (peptide), for which, in assay [2], the Tm increase (DSF) amounted to 5 °C.
Phe-Gly-Gly (peptide): in assay [2], the Tm increase (DSF) was 8.3 °C.
On to Val-Tyr-Val (peptide), for which, in assay [2], the Tm increase (DSF) was found to be 5 °C.
